{"source": "patent US20240294910A1", "about": "“NOVEL THERAPEUTIC AGENT FOR SEPTICEMIA, AND A METHOD FOR SCREENING FOR SAME” (Chugai Seiyaku Kabushiki Kaisha, priority 2014, published 2024)", "format_in_all_cases": "cell-based, mouse", "key": {"Arid5A mRNA": {"test_system": "Arid5A mRNA", "experiment": "Arid5A mRNA expression by qPCR in LPS-stimulated peritoneal macrophages", "settings": "peritoneal macrophages from C57BL/6 mice, LPS (1 g/mL), test agent 20 μM, 2 hours after LPS stimulation, vs absence of CPZ; FIG. 6", "protocol": "(§1) Peritoneal macrophages from C57BL/6 mice (aged 6 to 8 weeks) were stimulated with LPS ([…]) in the presence or absence of a test agent (20 μM). The relative expression levels of mRNAs of Arid5A, IL-6, and TNF-α were determined in the stimulated peritoneal macrophages by quantitative PCR (qPCR). The expression level of Arid5A mRNA was determined 2 hours after LPS stimulation. The expression levels of IL-6 mRNA and TNF-α mRNA were determined 2 hours, 6 hours, 12 hours, and 24 hours after LPS stimulation. FIGS. 6 to 8 show the results when chlorpromazine (CPZ) was used as a test agent."}, "IL-6 mRNA": {"test_system": "IL-6 mRNA", "experiment": "IL-6 mRNA expression by qPCR in LPS-stimulated peritoneal macrophages", "settings": "LPS (1 g/mL), test agent 20 μM, vs absence of CPZ, FIG. 7", "protocol": "as §1"}, "TNF-α mRNA": {"test_system": "TNF-α mRNA", "experiment": "TNF-α mRNA expression by qPCR in LPS-stimulated peritoneal macrophages", "settings": "LPS (1 g/mL), test agent 20 μM, determined 2, 6, 12 and 24 hours after LPS stimulation, FIG. 8", "protocol": "as §1"}}}
{"compound": "CN(C)CCCN1c2ccccc2Sc2ccc(Cl)cc21", "note": "[CPZ, chlorpromazine]", "values": [{"measurement": "expression of Arid5A mRNA (qPCR)", "setting": "Arid5A mRNA", "value": "markedly suppressed"}, {"measurement": "expression of IL-6 mRNA (qPCR)", "setting": "IL-6 mRNA; 2 hours after LPS stimulation", "value": "markedly suppressed"}, {"measurement": "expression of IL-6 mRNA (qPCR)", "setting": "IL-6 mRNA; 6 hours after LPS stimulation", "value": "markedly suppressed"}, {"measurement": "expression of TNF-α mRNA (qPCR)", "setting": "TNF-α mRNA", "value": "no effect"}]}
